Source: patent US20190084900A1, “ISOTOPICALLY MODIFIED COMPOSITION AND THERAPEUTIC USES THEREOF” (RETROTOPE, INC., priority 2016, published 2019)
“Also recorded” adds a separate entry of the source. Where no end group is shown, it is not given here.

Legend:
[1] = In vitro peptide aging: deamidation of the asparaginyl residue, by reverse-phase HPLC with UV at 210 nm; settings: pH 7.4, 37° C.
Protocol: (§1) Deuterated peptide VYPNGA and the protonated control peptide were dissolved in 0.1 M sodium phosphate, pH 7.44 at 23° C. These solutions were sterilized by passing them through 0.2 μm pore syringe filters (Fisher), and 50 μL aliquots containing 40 nmol of peptide were placed in 200 μL PCR tubes, which were incubated at 37° C. for various times up to 20.6 days. At this temperature, the pH of the phosphate buffer is very close to 7.40. At the end of the incubations, 4.5 μL of 1 M hydrochloric acid was added to each tube, lowering the pH to about 4 to minimize any additional deamidation of the asparaginyl residue. These aged samples were then stored at −20° C. prior to analysis by HPLC.
(§2) Deuterated and non-deuterated VYPNGA were aged in vitro in 0.1 M sodium phosphate at physiological pH and temperature. The rate of deamidation of the asparaginyl residue was determined by separating the peptide from its degradation products using reverse phase HPLC and measuring the UV absorbance at 210 nm using the approach of Geiger and Clarke, supra.
(§3) The l- and d-forms of these peptides were not separated under these conditions. These HPLC runs were done with a linear gradient from 100% buffer A (0.1% trifluoroacetic acid in water) to 86% buffer A/14% buffer B (0.1% trifluoroacetic acid, 0.9% water, 99% acetonitrile) in 28 min.
(§4) The relative quantity of asparagine-containing peptide remaining (open circles) was quantified by UV absorbance at 210 nm during separation of the peptides by HPLC using a reverse phase C18 column as shown in FIG. 2. There were 24 data points in each panel though some were concealed due to overlap, combined from two independent aging experiments. The line in each panel was fit to the data points using the first order reaction equation [A]=[A]0e−kt and least squares analysis.

[2] = In vitro peptide aging: hydrolysis of the succinimide intermediate to isoaspartyl vs normal aspartyl peptide (HPLC); format: physicochemical; settings: for average relative amount of isoaspartyl-containing peptide (isoAsp/(isoAsp+Asp)): samples aged at 37° C. for at least 24 h, pH 7.4
Protocol: Both isoaspartyl- and normal aspartyl-containing peptides arose from spontaneous deamidation of the deuterated asparaginyl residue upon incubation at pH 7.4 and 37° C.

[3] = In vitro peptide aging: racemization, D-aspartate quantified in acid hydrolysates and rate constants fitted; format: physicochemical; settings: for Asn/Asp/isoAsp residues racemized to the D-configuration by 4 days: 4 days of aging; for racemization rate constant of the succinimide: least squares fit of modeled D-Asx accumulation to measured values; for slope of racemization line (D-aspartate fraction versus time): deamidated peptides
Protocol: First, a 10 μL aliquot (3.27 nmol) was removed from the aged sample and dried in a small glass test tube. These tubes were placed in a hydrolysis vial and 300 μL of 6 M hydrochloric acid was added to the vial but not directly into the sample tubes. The vial was capped with a Teflon stopcock, and then was flushed with nitrogen and sealed under vacuum using a PicoTag Work Station (Waters). This method allows only acid vapor to contact the peptide, minimizing contamination with exogenous aspartic acid. Hydrolysis proceeded at 110° C. for the relatively short time of 3 h, which is long enough to release most of the asparaginyl/aspartyl residues from the peptide, while minimizing acid catalyzed racemization (Brunauer and Clarke 1986). D-Aspartate and L-aspartate in the hydrolysates were then modified with o-phthalaldehyde and N-acetyl-L-cysteine to make fluorescent diasteriomers and quantitated using reverse phase HPLC with fluorometric analysis (Aswad 1984), as modified by Warmack et al. 2016.
To get an estimate of the racemization rate constants, the rate constants determined by Geiger and Clarke (1987) for a peptide of the same sequence was used but only with protonated asparagine using the following equations, where each k value has the units of min^−1: […]
At time zero, the l-asparaginyl-containing peptide is set to a quantity of 1.0, and all of the degradation products are considered to have a quantity of 0. The equations are then solved to give the quantities of the peptides present after 1 min, and these quantities are then used to solve the peptides for the next minute. Using Microsoft Excel, these calculations were repeated until the amount of each peptide present after 20.6 days was determined.
To investigate the effect of asparagine residue deuteration on racemization, the peptides were aged at 37° C. and pH 7.4 as described above, and the quantity of D-aspartate determined following acid hydrolysis. While breaking the peptide bonds to release free amino acids, acid hydrolysis also converts asparaginyl, succinimidyl, and isoaspartyl residues into free aspartic acid. […] The accumulation of D-Asx residues (D-Asp, D-isoAsp, and D-succinimide) was modeled using the rate constants as described in the “Materials and methods” section to fit the data points using the values obtained by Geiger and Clarke (1987) and maximizing the fit by varying the rate constant for succinimide racemization.
VYPNGA containing either protiated or deuterated asparagine was incubated for various times at 37° C. and pH 7.4 and then acid hydrolyzed. The amount of d-aspartate and l-aspartate in the hydrolysates was quantified following derivatization with ortho-phthalaldehyde and N-acetyl-1-cysteine and separation of the resulting fluorescent diastereomers by reverse-phase HPLC, and graphed as the fraction of d-aspartate relative to the total aspartate (open circles). […] The lines were obtained by computer simulation of the reactions involved in deamidation of asparaginyl residues starting with previously published kinetic constants (Geiger and Clarke 1987), and varying the racemization rate of the succinimide intermediate to give a best-fit line as determined by least squares analysis.

[4] = Stephenson and Clarke; cited from earlier work
physchem = settings: buffer, pH 7.4
Protocol: as §1, §2, §3, §4

[5] = Geiger and Clarke 1987; cited from earlier work
[6] = between 9 and 22 days of incubation

asparaginyl residues deamidated after 6 days [1] | asparaginyl residues deamidated after three days [1] [%] | increase in production of normal aspartyl-containing peptide upon hydrolysis of the succinimide ring ([2]; deuterated versus protiated succinimide) | average relative amount of isoaspartyl-containing peptide (isoAsp/(isoAsp+Asp)) [2] | racemization rate constant relative to protiated peptide ([3]; 37° C., pH 7.4) | Asn/Asp/isoAsp residues racemized to the D-configuration by 4 days ([3]; 37° C., pH 7.4) [%] | aspartyl/isoaspartyl/succinimidyl residues racemized to the D-configuration after 21 days ([3]; 37° C., pH 7.4, 21 days of incubation) [%] | racemization rate constant of the succinimide ([3]; 37° C., pH 7.4) [min⁻¹] | succinimides that have lost the deuterium from the alpha carbon ([3]; 21 days of incubation, 2×1.49%) [%] | deamidated peptide still deuterated on the alpha carbon ([3]; after incubation, 9 to 22 days) | rate of racemization of l-aspartyl/l-isoaspartyl residues relative to protiated [3, 6] | slope of racemization line (D-aspartate fraction versus time) [3, 6] | half-life at 800 µM (physchem) [h] | racemization rate constant relative to that previously measured (Geiger and Clarke) ([3]; higher than the literature value) | rate of racemization of protiated peptide relative to deuterated peptide ([3]; within the first day of aging under physiological conditions) [times] | Substance | effect of deuterium atoms on rate of deamidation / succinimide formation ([1]; versus protiated peptide) | tendency of the succinimide to open to the isoaspartyl configuration / effect on succinimide hydrolysis ([2]; deuterated versus protonated succinimide) | accumulation of d-aspartyl and d-isoaspartyl forms / rate of D-aspartate formation relative to protiated peptide ([3]; pH 7.4, 37° C., up to 20 day incubation) | succinimide formation of Asn residue in VYPNGA relative to aspartyl residue in VYPDGA [4] | L-isoAsp/(L-isoAsp+L-Asp) previously reported [5]
about 95% | 80 | about 2.3% | 0.770 | almost five-fold lower | 1 | 1.49 | 7.4e-05 | 2.98 | over 97% | about fourfold slower | about 1.70×10^−4 day^−1 | – | – | – | VYPNGA [deuterated peptide] | little effect; also recorded: unchanged; also recorded: no effect | slightly less likely to open to the isoaspartyl configuration; also recorded: only a small effect | much slower rate; also recorded: decreased more than five-fold; also recorded: five-fold decreased rate; also recorded: much more resistant to racemization | – | –
about 95% | 80 | – | 0.793 | – | 5 | – | 0.00034 | – | – | – | 0.000677 day⁻¹ | 32.4 | about 1.14 fold | 3.65 | VYPNGA [protiated peptide, L-Val-L-Tyr-L-Pro-L-Asn-Gly-L-Ala, reference compound] | – | – | – | about 37 times | 0.785
